Tested on: (Male) Sxlp^e tTa^(A) tRe lacZ^(I) × C(1)DX (Female)
Test: Reporter crosses at 25° C., embryos stained for lacZ
Type: in vivo, Drosophila melanogaster
Text: As with “single chromosome crosses”, ten to fifteen virgin females homozygous for the tTA construct and five to ten young males homozygous for the tRe construct were placed on food containing or lacking a tetracycline supplement.
C(1)DX is a compound X chromosome; effectively two X chromosomes joined together. The X chromosome from males crossed to C(1)DX females is therefore inherited by the sons, rather than the daughters.

CN(C)[C@@H]1C(O)=C(C(N)=O)C(=O)[C@@]2(O)C(O)=C3C(=O)c4c(O)cccc4[C@@](C)(O)[C@H]3C[C@@H]12 [Tetracycline, tetracycline]
LacZ negative Total (Tetracycline 0.1 μg/ml in food): 708 | LacZ positive Total (Tetracycline 0.1 μg/ml in food): 0 | LacZ negative Total (Tetracycline 1 μg/ml in food): 737 | LacZ positive Total (Tetracycline 1 μg/ml in food): 0 | LacZ negative Total (Tetracycline 5 μg/ml in food): 683 | LacZ positive Total (Tetracycline 5 μg/ml in food): 0

Source: patent publication US9125388B2, “Biological control” (Isis Innovation Limited, priority 1999, dated 2015)
